Results as given in patent publication US20190358181A1, “METHODS FOR AUTISM SPECTRUM DISORDER PHARMACOTHERAPY” (priority 2017, published 2019).

System: 610 metabolites from 63 biochemical pathways
Assay: Targeted broad-spectrum plasma metabolomic analysis (LC-MS/MS), paired pre-infusion vs post-infusion (2-days and 6-weeks)
Type: in vivo, human
Settings: plasma, 2-days after infusion vs pre-infusion
Description: Targeted, broad-spectrum, plasma metabolomic analysis of 610 metabolites from 63 biochemical pathways was performed by high performance liquid chromatography and tandem mass spectrometry (LC-MS/MS) on the samples collected from patients in Example 1. Venous blood was collected between the hours of 8 am and 5 pm, at least 3 hours after the last meal, into lithium-heparin vacutainer tubes (BD #367884). Plasma was separated by centrifugation at 900 g×10 minutes at room temperature within one hour of collection. The resulting fresh lithium-heparin plasma was transferred to labeled 1.2 ml or 2.0 ml externally threaded cryotubes with a minimum headspace air gap for storage at −80° C. for analysis. Samples were analyzed on an AB SCIEX QTRAP 5500 triple quadrupole mass spectrometer equipped with a Turbo V electrospray ionization (ESI) source, Shimadzu LC-20A UHPLC system, and a PAL CTC autosampler. Typically, 90 μl of plasma was thawed on ice and transferred to a 1.7 ml Eppendorf tube. Five (5.0) μl of a cocktail containing 25-35 commercial stable isotope internal standards, and 5.0 μl of 57 stable isotope internal standards that were custom-synthesized in E. coli NCM3722, Caenorhabditis elegans N2, and Komagataella phaffii (ATCC 76273; formerly known as Pichia pastoris) by metabolic labeling with 13C-glucose and 13C-bicarbonate, were added, mixed, and incubated for 10 min at 20° C. to permit small molecules and vitamins in the internal standards to associate with plasma binding proteins. Macromolecules (protein, DNA, RNA, glycans, etc.) were precipitated by extraction with 4 volumes (400 μl) of cold (−20° C.), acetonitrile:methanol (50:50) (LCMS grade, Cat #LC015-2.5 and GC230-4, Burdick & Jackson, Honeywell), vortexed vigorously, and incubated on crushed ice for 10 min, then removed by centrifugation at 16,000 g×10 min at 4° C. The supernatants containing the extracted metabolites and internal standards in the resulting 40:40:20 solvent mix of acetonitrile:methanol:water were transferred to labeled cryotubes and stored at −80° C. for LCMS/MS analysis.
LC-MS/MS analysis was performed by scheduled multiple reaction monitoring (sMRM) under Analyst v1.6.2 software control in both negative and positive mode with rapid polarity switching (50 ms). Nitrogen was used for curtain gas (set to 30), collision gas (set to high), ion source gas 1 and 2 (set to 35). The source temperature was 500° C. Spray voltage was set to −4500 V in negative mode and 5500 V in positive mode. The values for Q1 and Q3 mass-to-charge ratios (m/z), declustering potential (DP), entrance potential (EP), collision energy (CE), and collision cell exit potential (CXP) were determined and optimized for each MRM for each metabolite. Ten microliters of extract was injected by PAL CTC autosampler via a 10 μl stainless steel loop into a 250 mm×2.0 mm, 4 μm polymer based NH2 HPLC column (Asahipak NH2P-40 2E, Showa Denko America, Inc., NY) held at 25° C. for chromatographic separation. The mobile phase was solvent A: 95% water with 20 mM (NH4)2CO3 (Sigma, Fluka Cat #74415-250G-F), 5% acetonitrile, and 38 mM NH4OH (Sigma, Fluka Cat #17837-100ML), final pH 9.75; solvent B: 100% acetonitrile. Separation was achieved using the following gradient: 0-3.5 min: 95% B, 3.6-8 min: 85% B, 8.1-13 min: 75% B, 13.5-35 min: 0% B, 36-46 min: 95% B, 46.1 min: end. The flow rate was 200 μl/min. Pump pressures ranged from 920-2600 psi over the course of the gradient. All the samples were kept at 4° C. during analysis. The chromatographic peaks were identified using MultiQuant (v3.0, Sciex), confirmed by manual inspection, and the peak areas integrated. […]

[1] = Cholesterol, Cortisol, Non-Gonadal Steroid Metabolism
[2] = Eicosanoid and Resolvin Metabolism
[3] = Fatty Acid Oxidation and Synthesis
[4] = GABA, Glutamate, Arginine, Ornithine, Proline Metabolism
[5] = Gamma-Glutamyl and other Dipeptides
[6] = Glycolysis and Gluconeogenesis Metabolism
[7] = Histidine, Histamine, Carnosine Metabolism
[8] = Nitric Oxide, Superoxide, Peroxide Metabolism
[9] = SAM, SAH, Methionine, Cysteine, Glutathione Metabolism
[10] = Taurine, Hypotaurine Metabolism
[11] = Tryptophan, Kynurenine, Serotonin, Melatonin Metabolism
[12] = Tyrosine and Phenylalanine Metabolism
[13] = Vitamin D (Calciferol) Metabolism

## Cc1ccc(C(=O)Nc2ccc(S(=O)(=O)O)c3cc(S(=O)(=O)O)cc(S(=O)(=O)O)c23)cc1NC(=O)c1cccc(NC(=O)Nc2cccc(C(=O)Nc3cc(C(=O)Nc4ccc(S(=O)(=O)O)c5cc(S(=O)(=O)O)cc(S(=O)(=O)O)c45)ccc3C)c2)c1 [Suramin, suramin]
Ceramide Metabolism
  Z Abs, Ceramide(d18:1/18:2): 0.530
  Z Score, Ceramide(d18:1/18:2): 0.530
[1]
  Linear Ratio, 24,25-Epoxycholesterol: 1.362
  VIP Score, 24,25-Epoxycholesterol: 1.807
  Z Abs, 24,25-Epoxycholesterol: 1.014
  Z Score, 24,25-Epoxycholesterol: 1.014
[2]
  Linear Ratio, 5-HETE: 0.866
  Linear Ratio, 11(R)-HETE: 0.748
  Linear Ratio, 11,12-Epoxyeicosatrienoic acid: 0.828
  Linear Ratio, Prostaglandin J2: 0.649
  VIP Score, 5-HETE: 1.646
  VIP Score, 11(R)-HETE: 2.400
  VIP Score, 11,12-Epoxyeicosatrienoic acid: 1.535
  VIP Score, Prostaglandin J2: 1.509
  Z Abs, 5-HETE: 0.671
  Z Abs, 11(R)-HETE: 0.875
  Z Abs, 11,12-Epoxyeicosatrienoic acid: 0.634
  Z Abs, Prostaglandin J2: 0.601
  Z Score, 5-HETE: −0.671
  Z Score, 11(R)-HETE: −0.875
  Z Score, 11,12-Epoxyeicosatrienoic acid: −0.634
  Z Score, Prostaglandin J2: −0.601
Endocannabinoid Metabolism
  Linear Ratio, Anandamide: 0.684
  VIP Score, Anandamide: 1.713
  Z Abs, Anandamide: 0.709
  Z Score, Anandamide: −0.709
[3]
  Linear Ratio, Malonic acid: 0.904
  VIP Score, Malonic acid: 1.833
  Z Abs, Malonic acid: 0.825
  Z Score, Malonic acid: −0.825
[4]
  Linear Ratio, Gamma-Aminobutyric acid: 1.068
  Linear Ratio, L-Proline: 1.155
  Linear Ratio, N-Acetylglutamic acid: 1.120
  VIP Score, Gamma-Aminobutyric acid: 1.626
  VIP Score, L-Proline: 1.548
  VIP Score, N-Acetylglutamic acid: 1.505
  Z Abs, Gamma-Aminobutyric acid: 1.101
  Z Abs, L-Proline: 0.603
  Z Abs, N-Acetylglutamic acid: 0.613
  Z Score, Gamma-Aminobutyric acid: 1.101
  Z Score, L-Proline: 0.603
  Z Score, N-Acetylglutamic acid: 0.613
[5]
  Linear Ratio, Gamma-glutamyl-Alanine: 1.294
  Linear Ratio, Glycylproline: 1.773
  VIP Score, Gamma-glutamyl-Alanine: 1.575
  VIP Score, Glycylproline: 2.205
  Z Abs, Gamma-glutamyl-Alanine: 0.896
  Z Abs, Glycylproline: 1.212
  Z Score, Gamma-glutamyl-Alanine: 0.896
  Z Score, Glycylproline: 1.212
[6]
  Linear Ratio, 2,3-Diphosphoglyceric acid: 1.198
  Linear Ratio, Glycerol 3-phosphate: 1.187
  VIP Score, 2,3-Diphosphoglyceric acid: 2.600
  VIP Score, Glycerol 3-phosphate: 1.651
  Z Abs, 2,3-Diphosphoglyceric acid: 0.990
  Z Abs, Glycerol 3-phosphate: 1.151
  Z Score, 2,3-Diphosphoglyceric acid: 0.990
  Z Score, Glycerol 3-phosphate: 1.151
Glycosphingolipid Metabolism
  Linear Ratio, GC(18:1/22:0): 1.399
  VIP Score, GC(18:1/22:0): 2.123
  Z Abs, GC(18:1/22:0): 1.057
  Z Score, GC(18:1/22:0): 1.057
[7]
  Linear Ratio, 1-Methylhistidine: 1.145
  VIP Score, 1-Methylhistidine: 1.848
  Z Abs, 1-Methylhistidine: 0.899
  Z Score, 1-Methylhistidine: 0.899
Krebs Cycle
  Linear Ratio, Citramalic acid: 1.121
  Linear Ratio, Citric acid: 1.142
  VIP Score, Citramalic acid: 1.704
  VIP Score, Citric acid: 1.590
  Z Abs, Citramalic acid: 1.229
  Z Abs, Citric acid: 0.759
  Z Score, Citramalic acid: 1.229
  Z Score, Citric acid: 0.759
Microbiome Metabolism
  Linear Ratio, 2-Keto-L-gluconate: 1.264
  Linear Ratio, Indoxyl sulfate: 1.280
  Linear Ratio, Shikimate-3-phosphate: 1.047
  Linear Ratio, p-Hydroxyphenylacetic acid: 1.192
  VIP Score, 2-Keto-L-gluconate: 2.994
  VIP Score, Indoxyl sulfate: 1.858
  VIP Score, Shikimate-3-phosphate: 1.886
  VIP Score, p-Hydroxyphenylacetic acid: 2.546
  Z Abs, 2-Keto-L-gluconate: 2.586
  Z Abs, Indoxyl sulfate: 0.702
  Z Abs, Shikimate-3-phosphate: 1.033
  Z Abs, p-Hydroxyphenylacetic acid: 1.464
  Z Score, 2-Keto-L-gluconate: 2.586
  Z Score, Indoxyl sulfate: 0.702
  Z Score, Shikimate-3-phosphate: 1.033
  Z Score, p-Hydroxyphenylacetic acid: 1.464
[8]
  Linear Ratio, Azelaic acid: 0.914
  VIP Score, Azelaic acid: 1.929
  Z Abs, Azelaic acid: 2.024
  Z Score, Azelaic acid: −2.024
Phospholipid Metabolism
  Linear Ratio, LysoPC(16:0): 0.777
  Linear Ratio, PA(16:0/16:1): 0.793
  Linear Ratio, PG(16:0/16:0): 0.549
  VIP Score, LysoPC(16:0): 2.067
  VIP Score, PA(16:0/16:1): 1.998
  VIP Score, PG(16:0/16:0): 1.664
  Z Abs, LysoPC(16:0): 0.908
  Z Abs, PA(16:0/16:1): 0.813
  Z Abs, PG(16:0/16:0): 0.667
  Z Score, LysoPC(16:0): −0.908
  Z Score, PA(16:0/16:1): −0.813
  Z Score, PG(16:0/16:0): −0.667
Purine Metabolism
  Linear Ratio, 1-Methyladenine: 1.631
  Linear Ratio, AICAR: 1.309
  Linear Ratio, Allantoin: 1.663
  Linear Ratio, Cyclic adenosine monophosphate: 0.855
  Linear Ratio, Deoxyguanosine diphosphate: 0.889
  Linear Ratio, Guanosine: 0.702
  Linear Ratio, Hypoxanthine: 0.745
  Linear Ratio, Purine: 1.203
  Linear Ratio, Xanthosine: 0.821
  VIP Score, 1-Methyladenine: 2.033
  VIP Score, AICAR: 1.787
  VIP Score, Allantoin: 2.195
  VIP Score, Cyclic adenosine monophosphate: 1.949
  VIP Score, Deoxyguanosine diphosphate: 2.264
  VIP Score, Guanosine: 1.519
  VIP Score, Hypoxanthine: 2.267
  VIP Score, Purine: 1.847
  VIP Score, Xanthosine: 1.764
  Z Abs, 1-Methyladenine: 1.337
  Z Abs, AICAR: 1.310
  Z Abs, Allantoin: 0.926
  Z Abs, Cyclic adenosine monophosphate: 0.681
  Z Abs, Deoxyguanosine diphosphate: 1.276
  Z Abs, Guanosine: 0.766
  Z Abs, Hypoxanthine: 1.000
  Z Abs, Purine: 1.137
  Z Abs, Xanthosine: 1.316
  Z Score, 1-Methyladenine: 1.337
  Z Score, AICAR: 1.310
  Z Score, Allantoin: 0.926
  Z Score, Cyclic adenosine monophosphate: −0.681
  Z Score, Deoxyguanosine diphosphate: −1.276
  Z Score, Guanosine: −0.766
  Z Score, Hypoxanthine: −1.000
  Z Score, Purine: 1.137
  Z Score, Xanthosine: −1.316
Pyrimidine Metabolism
  Linear Ratio, Cytosine: 1.689
  Linear Ratio, Orotic acid: 0.670
  VIP Score, Cytosine: 2.556
  VIP Score, Orotic acid: 1.787
  Z Abs, Cytosine: 2.055
  Z Abs, Orotic acid: 0.612
  Z Score, Cytosine: 2.055
  Z Score, Orotic acid: −0.612
[9]
  Linear Ratio, Cysteamine: 1.107
  Linear Ratio, Cysteine-S-sulfate: 0.869
  Linear Ratio, Methionine sulfoxide: 1.331
  VIP Score, Cysteamine: 2.075
  VIP Score, Cysteine-S-sulfate: 1.682
  VIP Score, Methionine sulfoxide: 1.817
  Z Abs, Cysteamine: 1.398
  Z Abs, Cysteine-S-sulfate: 0.644
  Z Abs, Methionine sulfoxide: 1.738
  Z Score, Cysteamine: 1.398
  Z Score, Cysteine-S-sulfate: −0.644
  Z Score, Methionine sulfoxide: 1.738
Sphingomyelin Metabolism
  Linear Ratio, SM(d18:1/20:0): 0.712
  Linear Ratio, SM(d18:1/20:1): 0.745
  VIP Score, SM(d18:1/20:0): 1.576
  VIP Score, SM(d18:1/20:1): 2.033
  Z Abs, SM(d18:1/20:0): 0.770
  Z Abs, SM(d18:1/20:1): 1.250
  Z Score, SM(d18:1/20:0): −0.770
  Z Score, SM(d18:1/20:1): −1.250
[10]
  Linear Ratio, Taurine: 0.786
  VIP Score, Taurine: 2.042
  Z Abs, Taurine: 0.942
  Z Score, Taurine: −0.942
[11]
  Linear Ratio, L-Kynurenine: 1.099
  VIP Score, L-Kynurenine: 1.617
  Z Abs, L-Kynurenine: 0.625
  Z Score, L-Kynurenine: 0.625
[12]
  Linear Ratio, L-Phenylalanine: 1.164
  VIP Score, L-Phenylalanine: 1.839
  Z Abs, L-Phenylalanine: 0.957
  Z Score, L-Phenylalanine: 0.957
[13]
  Linear Ratio, 1,25-Dihydroxyvitamin D3: 0.273
  VIP Score, 1,25-Dihydroxyvitamin D3: 3.134
  Z Abs, 1,25-Dihydroxyvitamin D3: 1.447
  Z Score, 1,25-Dihydroxyvitamin D3: −1.447
